In patent EP2508526A1, “Spiroalkene carboxamide derivatives and their use as chemokine receptor modulators” (Ares Trading SA, priority 2011, dated 2012):

molecular target: T1, hCCR2b (Homo sapiens, UniProt P41597); test: CCR2 binding assay ([125I]MCP-1, SPA, CHO cell membranes); design: expressed in transfected cells; host or cells: CHO cells (membrane preparation); details: membranes from CHO cells expressing hCCR2b, 50 pM [125I]MCP-1; read-out: Binding hCCR2 (Ki)
T1 sequence (P41597 1-360 isoform P41597-2): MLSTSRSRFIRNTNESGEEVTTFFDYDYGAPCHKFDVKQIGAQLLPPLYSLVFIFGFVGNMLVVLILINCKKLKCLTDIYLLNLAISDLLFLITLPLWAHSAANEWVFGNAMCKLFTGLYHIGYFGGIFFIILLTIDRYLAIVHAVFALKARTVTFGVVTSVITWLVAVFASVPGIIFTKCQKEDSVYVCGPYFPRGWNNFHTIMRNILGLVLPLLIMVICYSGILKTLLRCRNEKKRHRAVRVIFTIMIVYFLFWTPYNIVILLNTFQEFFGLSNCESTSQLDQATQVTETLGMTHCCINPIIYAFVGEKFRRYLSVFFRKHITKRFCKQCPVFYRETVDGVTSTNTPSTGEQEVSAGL
Description: Membranes were prepared from CHO cells expressing mCCR2b or hCCR2b for use in ligand binding studies. Cells were suspended in 50mM Tris-HCL, pH 7.4, 2 mM EDTA, 250 mM Sucrose and 1x Complete EDTA-free protease inhibitor cocktail (Roche) (Buffer A), and disrupted at 4°C by N2 decompression using a cell disruption bomb (Parr Instrument). Following centrifugation at 200 RCF for 10 min at 4°C, the supernatant was suspended in buffer A and centrifuged again at 19000 RPM (RCSC rotor SS34 code 05 Sorvall Instruments DUPONT) for 90 min at 4°C. The pellet was then suspended in 10 mM HEPES, pH 7.4, 1 mM EDTA, 250 mM Sucrose, and 1x Complete EDTA-free protease inhibitor cocktail (Buffer B) and homogenized using a potter. Membranes were flash frozen in liquid N2 and stored at -80°C. [125I] Monocyte Chemoattractant Protein -1 (MCP-1) (25µCi; Perkin Elmer) was added to test compounds in DMSO (1% final). Membranes and WGA SPA beads (GE Healthcare) were added to give a final volume of 100 µl in 96-well plates with assay concentrations of 50 pM or 100 pM [125I]Monocyte Chemoattractant Protein -1 (respectively for hCCR2b or mCCR2b), 50 mM HEPES, pH 7.4, 5 mM MgCl2, 1 mM CaCl2, 0.1% BSA, 1-5 µg/well of membranes and 100 µg/well of WGA SPA beads. Binding was performed for 90 min at RT with strong agitation of speed 5 (Heidolph Titramax 100 SCITEC) and bound radioactivity was measured on a PerkinElmer 1450 MicroBeta counter. Specific binding was calculated by subtracting remaining radioactivity in the presence of 1000-fold excess of unlabeled compound. Binding data were analyzed using the Genedata Screener® software.

`CO[C@@H]1COCC[C@@H]1N1CCC2(CC1)OC(=O)C(C)=C2C(=O)N1CCc2ncc(C(F)(F)F)cc2C1` (single isomer, unassigned) [Compound 44, (-)-1,5-anhydro-2,3-dideoxy-4-O-methyl-3-(3-methyl-2-oxo-4-{[3-(trifluoromethyl)-7,8-dihydro-1,6-naphthyridin-6(5H)-yl]carbonyl}-1-oxa-8-azaspiro[4.5]dec-3-en-8-yl)-pentitol] was tested. Which Ki did it give?
Its Ki is 100 to 500 nM.

How did the Ki turn out when `COC1COCCC1N1CCC2(CC1)OC(=O)C(C)=C2C(=O)N1CCc2ncc(C(F)(F)F)cc2C1` (single isomer, unassigned; (+)) [Compound 48, (+)-1,5-anhydro-3,4-dideoxy-2-O-methyl-3-(3-methyl-2-oxo-4-{[3-(trifluoromethyl)-7,8-dihydro-1,6-naphthyridin-6(5H)-yl]carbonyl}-1-oxa-8-azaspiro[4.5]dec-3-en-8-yl)-pentitol] was run?
The Ki was 100 to 500 nM.

Which Ki does the source give for `CC1=C(C(=O)N2CCc3ncc(C(F)(F)F)cc3C2)C2(CCN(C3CCOC(C)C3)CC2)OC1=O` (stereo not shown) [Compound 47, 3-methyl-8-(2-methyltetrahydro-2H-pyran-4-yl)-4-{[3-(trifluoromethyl)-7,8-dihydro-1,6-naphthyridin-6(5H)-yl]carbonyl}-1-oxa-8-azaspiro[4.5]dec-3-en-2-one] here?
The Ki was less than 50 nM.

For `CCN1CCC2(CC1)OC(=O)C(C)=C2C(=O)N1CCc2ccc(F)cc2C1` [Compound 53, 8-ethyl-4-[(7-fluoro-3,4-dihydroisoquinolin-2(1H)-yl)carbonyl]-3-methyl-1-oxa-8-azaspiro[4.5]dec-3-en-2-one], which Ki is on record?
Its Ki is 100 to 500 nM.

How did the Ki turn out when `CCN1CCC2(CC1)OC(=O)C(C)=C2C(=O)N1CCN(c2cc(C(F)(F)F)ccn2)CC1` [Compound 70, 8-ethyl-3-methyl-4-({4-[4-(trifluoromethyl)pyridin-2-yl]piperazin-1-yl}carbonyl)-1-oxa-8-azaspiro[4.5]dec-3-en-2-one] was run?
The Ki was less than 50 nM.

For `CCN1CCC2(CC1)OC(=O)C(C)=C2C(=O)N1CCc2cccc(C(F)(F)F)c2C1` [Compound 51, 8-ethyl-3-methyl-4-{[8-(trifluoromethyl)-3,4-dihydroisoquinolin-2 (1H)-yl]carbonyl}-1-oxa-8-azaspiro[4.5]dec-3-en-2-one], which Ki is on record?
Its Ki is 500 to 2000 nM.

`COCCN1CCC2(CC1)OC(=O)C(C)=C2C(=O)N1CCN(c2cccc(C(F)(F)F)c2)CC1` [Example 4, 8-(2-methoxyethyl)-3-methyl-4-({4-[3-(trifluoromethyl)phenyl]piperazin-1-yl}carbonyl)-1-oxa-8-azaspiro[4.5]dec-3-en-2-one] was tested. Which Ki did it give?
The Ki was less than 50 nM.

How did the Ki turn out when `CCN1CCC2(CC1)OC(=O)C(C)=C2C(=O)N1C[C@@H]2C[C@H]1CN2c1cc(C(F)(F)F)ccn1` [Compound 71, 8-ethyl-3-methyl-4-({(1S,4S)-5-[4-(trifluoromethyl)pyridin-2-yl]-2,5-diazabicyclo[2.2.1]hept-2-yl}carbonyl)-1-oxa-8-azaspiro[4.5]dec-3-en-2-one] was run?
Its Ki is less than 50 nM.

How did the Ki turn out when `CCN1CCC2(CC1)OC(=O)C(C)=C2C(=O)N1CCN(c2cncc(C(F)(F)F)c2)CC1` [Compound 60, 8-ethyl-3-methyl-4-({4-[5-(trifluoromethyl)pyridin-3-yl]piperazin-1-yl}carbonyl)-1-oxa-8-azaspiro[4.5]dec-3-en-2-one] was run?
Its Ki is 50 to 100 nM.

Which Ki does the source give for `CC1=C(C(=O)N2CCc3ccc(C(F)(F)F)cc3C2)C2(CCN(C(C)(C)C)CC2)OC1=O` [Compound 77, 8-tert-butyl-3-methyl-4-{[7-(trifluoromethyl)-3,4-dihydroisoquinolin-2(1H)-yl]carbonyl}-1-oxa-8-azaspiro[4.5]dec-3-en-2-one] here?
The Ki was less than 50 nM.

`CCN1CCCC2(CC1)OC(=O)C(C)=C2C(=O)N1CCc2ccc(C(F)(F)F)cc2C1` (stereo not shown) [Compound 120, 8-ethyl-3-methyl-4-{[7-(trifluoromethyl)-3,4-dihydroisoquinolin-2(1H)-yl]carbonyl}-1-oxa-8-azaspiro[4.6]undec-3-en-2-one] was tested. Which Ki did it give?
Its Ki is less than 50 nM.

For `CCN1CCC2(CC1)OC(=O)C(C)=C2C(=O)N1CCC(c2cccc(C(F)(F)F)c2)CC1` [Compound 94, 8-ethyl-3-methyl-4-({4-[3-(trifluoromethyl)phenyl]piperidin-1-yl}carbonyl)-1-oxa-8-azaspiro[4.5]dec-3-en-2-one], which Ki is on record?
The Ki was 100 to 500 nM.

`CC1=C(C(=O)N2CCN(c3cccc(C(F)(F)F)c3)CC2)C2(CCN(C(C)C)CC2)OC1=O` [Compound 101, 8-isopropyl-3-methyl-4-({4-[3-(trifluoromethyl)phenyl]piperazin-1-yl}carbonyl)-1-oxa-8-azaspiro[4.5]dec-3-en-2-one] was tested. Which Ki did it give?
Its Ki is less than 50 nM.

Which Ki does the source give for `CCN1CCC2(CC1C)OC(=O)C(C)=C2C(=O)N1CCc2ccc(C(F)(F)F)cc2C1` (stereo not shown) [Compound 79, 8-ethyl-3,7-dimethyl-4-{[7-(trifluoromethyl)-3,4-dihydroisoquinolin-2(1H)-yl]carbonyl}-1-oxa-8-azaspiro[4.5]dec-3-en-2-one] here?
Its Ki is less than 50 nM.

How did the Ki turn out when `CCN1CCC2(CC1)OC(=O)C(C)=C2C(=O)N1CCN(c2cc(OC)cc(C(F)(F)F)c2)CC1` [Compound 87, 8-ethyl-4-({4-[3-methoxy-5-(trifluoromethyl)phenyl]piperazin-1-yl}carbonyl)-3-methyl-1-oxa-8-azaspiro[4.5]dec-3-en-2-one] was run?
The Ki was less than 50 nM.

For `COc1ccccc1CCN1CCC2(CC1)OC(=O)C(C)=C2C(=O)N1CCN(c2cccc(C(F)(F)F)c2)CC1` [Compound 63, 8-[2-(2-methoxyphenyl)ethyl]-3-methyl-4-({4-[3-(trifluoromethyl)phenyl]piperazin-1-yl}carbonyl)-1-oxa-8-azaspiro[4.5]dec-3-en-2-one], which Ki is on record?
The Ki was less than 50 nM.

For `CC1=C(C(=O)N2CCN(c3cccc(C(F)(F)F)c3)CC2)C2(CCN(C(C)Cc3ccccc3)CC2)OC1=O` (stereo not shown) [Compound 104, 3-methyl-8-(1-methyl-2-phenylethyl)-4-({4-[3-(trifluoromethyl)phenyl]piperazin-1-yl}carbonyl)-1-oxa-8-azaspiro[4.5]dec-3-en-2-one], which Ki is on record?
The Ki was less than 50 nM.

`CCN1CCC2(C1)OC(=O)C(C)=C2C(=O)N1CCN(c2cccc(C(F)(F)F)c2)CC1` (stereo not shown) [Compound 118, 7-ethyl-3-methyl-4-({4-[3-(trifluoromethyl)phenyl]piperazin-1-yl}carbonyl)-1-oxa-7-azaspiro[4.4]non-3-en-2-one] was tested. Which Ki did it give?
The Ki was 50 to 100 nM.

Which Ki does the source give for `CC1=C(C(=O)N2CCN(c3cccc(C(F)(F)F)c3)CC2)C2(CCN(CCCC(=O)O)CC2)OC1=O` [Compound 11, 4-[3-methyl-2-oxo-4-({4-[3-(trifluoromethyl)phenyl]piperazin-1-yl}carbonyl)-1-oxa-8-azaspiro[4.5]dec-3-en-8-yl]butanoic acid] here?
Its Ki is 100 to 500 nM.

Which Ki does the source give for `CCN1CCC2(CC1)OC(=O)C(C)=C2C(=O)N1CCC(Nc2cccc(C(F)(F)F)c2)CC1` [Compound 59, 8-ethyl-3-methyl-4-[(4-{[3-(trifluoromethyl)phenyl]amino}piperidin-1-yl)carbonyl]-1-oxa-8-azaspiro[4.5]dec-3-en-2-one] here?
Its Ki is 500 to 2000 nM.

`COC(CN1CCC2(CC1)OC(=O)C(C)=C2C(=O)N1CCN(c2cccc(C(F)(F)F)c2)CC1)c1ccccc1` (stereo not shown) [Compound 7, 8-(2-methoxy-2-phenylethyl)-3-methyl-4-({4-[3-(trifluoromethyl)phenyl]piperazin-1-yl}carbonyl)-1-oxa-8-azaspiro[4.5]dec-3-en-2-one] was tested. Which Ki did it give?
The Ki was 50 to 100 nM.

How did the Ki turn out when `CCN1CCC2(CC1)OC(=O)C(C)=C2C(=O)N1CCN(c2cc(C(F)(F)F)ccc2OC)CC1` [Compound 95, 8-ethyl-4-({4-[2-methoxy-5-(trifluoromethyl)phenyl]piperazin-1-yl}carbonyl)-3-methyl-1-oxa-8-azaspiro[4.5]dec-3-en-2-one] was run?
The Ki was 500 to 2000 nM.

How did the Ki turn out when `COCCCN1CCC2(CC1)OC(=O)C(C)=C2C(=O)N1CCN(c2cccc(C(F)(F)F)c2)CC1` [Example 2, 8-(3-methoxypropyl)-3-methyl-4-({4-[3-(trifluoromethyl)phenyl]piperazin-1-yl}carbonyl)-1-oxa-8-azaspiro[4.5]dec-3-en-2-one] was run?
The Ki was less than 50 nM.

How did the Ki turn out when `CC1=C(C(=O)N2CCc3ncc(C(F)(F)F)cc3C2)C2(CCN(C)CC2)OC1=O` [Compound 122, 3,8-dimethyl-4-{[3-(trifluoromethyl)-7,8-dihydro-1,6-naphthyridin-6(5H)-yl]carbonyl}-1-oxa-8-azaspiro[4.5]dec-3-en-2-one] was run?
The Ki was less than 50 nM.

`COCCCN1CCC2(CC1)OC(=O)C(C)=C2C(=O)N1CCc2ccc(C(F)(F)F)cc2C1` [Compound 18, 8-(3-methoxypropyl)-3-methyl-4-{[7-(trifluoromethyl)-3,4-dihydroisoquinolin-2(1H)-yl]carbonyl}-1-oxa-8-azaspiro[4.5]dec-3-en-2-one] was tested. Which Ki did it give?
The Ki was less than 50 nM.
